Data reported in publication PMC10835127, “Viruses traverse the human proteome through peptide interfaces that can be biomimetically leveraged for drug discovery” (Proceedings of the National Academy of Sciences of the …, 2024).
Where two headings read alike, the source gives them in different places.

How the values were obtained:
[1] = system: HCV replicon; type: cell-based; settings: for HCV Norm MEAN: normalized mean of HCV replicon readout
[2] = system: F. novicida (strain U112); type: cell-based
[3] = system: EBV; settings: normalized mean of EBV replication readout
[4] = system: HIV1 strain NL4-3; type: cell-based; settings: normalized mean of HIV1 replication readout
[5] = system: influenza A H1N1 virus; settings: 48 hr post-treatment, A549

| Substance | HCV Norm MEAN [1] | Francisella novicida Norm AUC [2] | EBV Norm MEAN [3] | HIV1 Norm MEAN [4] | Neuraminidase activity normalized to vehicle ([5]; 200 µM peptide) | Neuraminidase activity normalized to vehicle ([5]; 0,823 µM peptide) | Neuraminidase activity normalized to vehicle ([5]; 22,2 µM peptide) | Neuraminidase activity normalized to vehicle ([5]; 2,4691 µM peptide) | Neuraminidase activity normalized to vehicle ([5]; 7,4074 µM peptide) | Neuraminidase activity normalized to vehicle ([5]; 66,6667 µM peptide) | HCV Norm MEAN ([1]; peptide screen) | EBV Norm MEAN ([3]; peptide screen) | HIV1 Norm MEAN ([4]; peptide screen) | activity in HCV screen (in words) ([1]; 20 µM peptide, Huh7, replicon luciferase) |
| --- | --- | --- | --- | --- | --- | --- | --- | --- | --- | --- | --- | --- | --- | --- |
| LEDLL [CPEP131] | 0.1994 | 1.169 | 1.433 | 2.616 | 1,0859 | 1,0236 | 1,0471 | 1,0486 | 0,9867 | 1,1075 | – | – | – | – |
| LERVIFPSVKIATLV [CPEP53] | – | 0.5248 | – | – | 0,9303 | 0,9211 | 1,0363 | 1,008 | 1,0347 | 1,0977 | 0.3466 | 1.031 | 0.6568 | – |
| LGNIKGILGKKDKDG [CPEP51] | – | 1.389 | – | – | 1,0387 | 0,8902 | 0,9184 | 0,9673 | 0,9421 | 1,0486 | 0.7895 | 0.7752 | 0.5462 | – |
| LGQGVSIEW [CPEP122] | 0.594 | 1.0126 | 0.7196 | 0.4311 | 0,6921 | 1,0256 | 0,854 | 0,9073 | 0,9191 | 0,7889 | – | – | – | – |
| LHCYE [CPEP152] | 0.1555 | 0.5262 | 1.379 | 1.7684 | 1,0605 | 0,8889 | 0,9121 | 0,8832 | 0,8045 | 1,0197 | – | – | – | – |
| LNSLF [CPEP143] | 0.2751 | 1.175 | 1.147 | 0.7905 | 0,8484 | 0,6928 | 0,8423 | 0,7636 | 0,8039 | 0,8807 | – | – | – | – |
| LQQLL [CPEP130] | 0.1679 | 0.7754 | 1.354 | 1.886 | 1,0055 | 0,8445 | 0,933 | 0,8513 | 0,8415 | 1,0245 | – | – | – | – |
| LRKRRKRL [CPEP145] | 0.1172 | 1.33 | 2.86 | 1.45 | 0,7911 | 0,8361 | 0,839 | 0,7253 | 0,7634 | 0,9146 | – | – | – | inhibition of RNA |
| LTEDRWNKPQKTKGH [CPEP141] | – | 1.234 | – | – | 0,9005 | 0,8505 | 0,9378 | 0,92 | 0,9289 | 0,9241 | 0.7797 | 0.7716 | 0.4657 | – |
| LTMVI [CPEP12] | 0.1977 | 1.651 | 1.608 | 1.936 | 0,732 | 0,7557 | 0,8312 | 0,7112 | 0,7657 | 0,8968 | – | – | – | – |
| MAGRSGDSDEELIR [CPEP91] | – | 1.031 | – | – | 0,8049 | 0,8065 | 0,8658 | 0,8956 | 0,8592 | 0,8689 | 0.7752 | 0.5729 | 0.2767 | – |
| MNNQRKKAKNTPFNM [CPEP62] | – | 0.8631 | – | – | 1,2311 | 1,1108 | 0,891 | 1,0767 | 0,9136 | 1,1387 | 0.5393 | 1.218 | 0.3968 | – |
| MSKKPGGPGKNRAVN [CPEP42] | – | 1.093 | – | – | 0,9312 | 0,9146 | 1,055 | 0,9945 | 0,9864 | 1,0215 | 0.9525 | 0.6277 | 0.4686 | – |
| MSSDLRLTLLELVRRL [CPEP66] | – | 1.55 | – | – | 1,1231 | 1,0081 | 1,2015 | 1,0026 | 1,0851 | 1,0904 | 1.3108 | 1.239 | 8.878 | – |
| NKVGSLQYLALAALI [CPEP60] | – | 1.045 | – | – | 0,117 | 0,8991 | 0,7636 | 1,0157 | 0,7801 | 0,247 | 1.268 | 0.706 | 4.7165 | – |
| PDSDPQIPPPYVEPTA [CPEP138] | – | 0.9657 | – | – | 1,0087 | 1,063 | 1,1918 | 0,9934 | 1,0804 | 1,0379 | 1.015 | 0.9708 | 0.606 | – |
